Results reported in US8361968B2 (Takeda Pharmaceutical Company Limited, priority 2002, dated 2013).
Numbered stars: 1 amine (or outer) side, 2 acyl side, 3 side chain; on linkers, the order of the positions; unused ones are H or OH. Square brackets hold non-standard residues; d marks the D form. Ends that are not written are not given here. Peptide text beside a SMILES is read from it. * marks the point of attachment. X4 = CC(C)C[C@H](NCCN*)C(=O)N[C@@H](CCCNC(=N)N)C(=O)N[C@@H](Cc1ccccc1)C(N)=O; X10 = NC(=O)C[C@@H](C(=O)[*:2])N(C[C@@H](N)Cc1ccc(O)cc1)[*:1]; X1 = O=C([C@H](Cc1ccc2ccccc2n1)N[*:1])[*:2]; 2Nal = N[C@@H](Cc1ccc2ccccc2c1)C(=O)O; Arg(Me) = CNC(=N)NCCC[C@H](N)C(=O)O; Fmoc = O=C(OCC1c2ccccc2-c2ccccc21)*; d3Pal = N[C@H](Cc1cccnc1)C(=O)O; d4Pal = N[C@H](Cc1ccncc1)C(=O)O; Cha = N[C@@H](CC1CCCCC1)C(=O)O; azaGly = NNC(=O)O

target: hOT7T175 (Homo sapiens, UniProt Q969F8, L364H); assay: Intracellular Ca ion level-increasing activity using FLIPR in hOT7T175/CHO; assay type: cell-based; parameters: expressed in transfected cells; host or cells: CHO/dhfr- cells, obtained from ATCC; settings: relative, Metastin (1-54) = 1
Description: Assay for Intracellular Ca Ion Level-Increasing Activity Using Flipr
In accordance with the method described in JPA 2000-312590, the intracellular Ca ion level-increasing activity was measured using FLIPR.
The stable expression cell line hOT7T175 was acquired by transduction of expression plasmid pAK-rOT175 for animal cells into CHO/dhff cells, using CellPhect Transfection Kit (Amersham Pharmacia Biotech, Inc.). First, 240 μL of Buffer A (attached to CellPhect Transfection Kit) was added to 9.6 μg of plasmid DNA dissolved in 240 μl of distilled water, followed by stirring. After settling the mixture for 10 minutes, 480 μL of Buffer B (attached to CellPhect Transfection Kit) was added to the mixture, which was vigorously stirred to form DNA-containing liposomes. Then, 4×10^5 CHO/dhff cells (obtained from ATCC) were inoculated on a 60 mm Petri dish. […] After culturing the cells at 37° C. for 6 hours in 5% carbon dioxide gas, the cells were washed twice with serum-free Ham's F-12 medium and 3 ml of 15% glycerol was added to the cells in the Petri dish to treat for 2 minutes. The cells were again washed twice with serum-free Ham's F-12 medium followed by incubation in Ham's F-12 medium supplemented with 10% fetal bovine serum at 37° C. for 15 hours in 5% carbon dioxide gas. The cells were dispersed by trypsin treatment and recovered from the Petri dish. The recovered cells were inoculated on a 6-well plate in 1.25×10^4 cells/well and incubation was initiated at 37° C. in Dulbecco's modified Eagle medium (DMEM) medium (Nissui Seiyaku Co., Ltd.) containing 10% dialyzed fetal bovine serum (JRH BIOSCIENCES, Inc.) under 5% carbon dioxide gas. […] The medium was exchanged on Days 1 and 2 to remove the cells died.
The intracellular Ca ion level-increasing activity of the synthetic peptide in hOT7T175/CHO was determined using FLIPR (Molecular Devices, Inc.).
hOT7T175/CHO was subcultured in DMEM supplemented with 10% dialyzed fetal bovine serum (hereinafter abbreviated as dFBS) and provided for the experiment (hereinafter abbreviated as 10% dFBS/DMEM). The hOT7T175/CHO was suspended in 10% dFBS-DMEM in 15×10^4 cells/ml. The suspension was inoculated on a 96-well plate for FLIPR (Black Plate Clear Bottom, Coster, Inc.) at 200 μL each (3.0×10^4 cells/200 μL/well), followed by incubation at 37° C. overnight in a 5% CO2 incubator (hereinafter simply referred to as the cell plate). Then, 21 ml of HANKS/HBSS (9.8 g of HANKS, 0.35 g of sodium hydrogencarbonate, 20 ml of 1M HEPES; after adjusting the pH to 7.4 with 1N sodium hydroxide, the mixture was sterilized by filtration), 210 μl of 250 mM Probenecid and […] of fetal bovine serum (FBS) were mixed (HANKS/HBSS-Probenecid-FBS).
Furthermore, 2 vials of Fluo3-AM (50 μug/vial) were dissolved in 21 μL of dimethylsulfoxide and 21 μL of 20% Pluronic acid. The resulting solution was added to and mixed with 10 ml of HANKS/HBSS-Probenecid-FBS described above. After the culture medium was removed, the mixture was dispensed onto the cell plate in 100 μL each/well, followed by incubation at 37° C. for an hour in a 5% CO2 incubator (pigment loading). The peptide was dissolved in dimethylsulfoxide in 1×10^−3 M. The peptide solution was diluted with HANKS/HBSS containing 2.5 mM Probenecid, 0.2% BSA and 0.1% CHAPS.

Chain of hOT7T175 (Q969F8 whole entry L364H): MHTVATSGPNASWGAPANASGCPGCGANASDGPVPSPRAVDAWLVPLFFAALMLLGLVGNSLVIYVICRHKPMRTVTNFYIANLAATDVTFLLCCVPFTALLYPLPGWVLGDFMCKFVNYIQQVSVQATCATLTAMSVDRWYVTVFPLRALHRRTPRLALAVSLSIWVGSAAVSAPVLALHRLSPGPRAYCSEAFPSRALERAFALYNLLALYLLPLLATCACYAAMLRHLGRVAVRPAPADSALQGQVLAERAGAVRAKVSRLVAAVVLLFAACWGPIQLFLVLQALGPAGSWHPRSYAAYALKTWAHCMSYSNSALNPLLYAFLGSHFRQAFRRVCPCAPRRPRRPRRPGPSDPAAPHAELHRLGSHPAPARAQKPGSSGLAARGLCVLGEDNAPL

First: CNC(=N)NCCC[C@H](NC(=O)[C@H](CC(C)C)NC(=O)CNC(=O)[C@H](Cc1ccccc1)NC(=O)[C@H](CO)NC(=O)[C@H](CC(N)=O)NC(=O)[C@H](C)NC(=O)[C@H](CC(N)=O)NC(=O)[C@H](N)Cc1ccc(O)cc1)C(=O)N[C@@H](Cc1ccccc1)C(N)=O [Compound No. 169] (H-[dY]NANSFGL[Arg(Me)]F-NH2)
Second: CC(C)C[C@H](NC(=O)CNC(=O)[C@H](Cc1ccccc1)NC(=O)[C@H](CC(C)C)NC(=O)[C@H](CC(N)=O)NC(=O)[C@H](Cc1c[nH]c2ccccc12)NC(=O)[C@H](CC(N)=O)NC(=O)[C@@H](N)Cc1ccc(O)cc1)C(=O)N[C@@H](CCCNC(=N)N)C(=O)N[C@@H](Cc1ccccc1)C(N)=O [Compound No. 24] (H-YNWNLFGLRF-NH2)
The “Specific Activity (intracellular Ca ion level-increasing activity)” value of the first is higher: 2 for the first, 1 for the second.

Going from `CC(C)C[C@H](NC(=O)CNC(=O)[C@H](Cc1ccccc1)NC(=O)[C@H](CO)NC(=O)[C@H](CC(N)=O)NC(=O)[C@H](Cc1c[nH]c2ccccc12)NC(=O)[C@H](CC(N)=O)NC(=O)[C@@H](N)Cc1ccc(O)cc1)C(=O)N[C@@H](CCCNC(=N)N)C(=O)N[C@@H](Cc1ccc2ccccc2c1)C(N)=O` [Compound No. 110] (H-YNWNSFGLR[2Nal]-NH2) to `CNC(=N)NCCC[C@H](NC(=O)[C@H](CC(C)C)NC(=O)NNC(=O)[C@H](Cc1ccccc1)NC(=O)[C@H](CO)NC(=O)[C@H](CC(N)=O)NC(=O)[C@H](Cc1c[nH]c2ccccc12)NC(=O)[C@H](N)Cc1cccnc1)C(=O)N[C@@H](Cc1ccccc1)C(N)=O` [Compound No. 289, D-Pya(3)-Trp-Asn-Ser-Phe-AzaGly-Leu-Arg(Me)-Phe-NH2] (H-[d3Pal]WNSF[azaGly]L[Arg(Me)]F-NH2), the “Specific Activity (intracellular Ca ion level-increasing activity)” value falls from 20 to 1.

First: CC(C)C[C@H](NC(=O)CNC(=O)[C@H](Cc1ccc2ccccc2c1)NC(=O)[C@H](CO)NC(=O)[C@H](CC(N)=O)NC(=O)[C@H](Cc1c[nH]c2ccccc12)NC(=O)[C@H](CC(N)=O)NC(=O)[C@@H](N)Cc1ccc(O)cc1)C(=O)N[C@@H](CCCNC(=N)N)C(=O)N[C@@H](Cc1ccccc1)C(N)=O [Compound No. 152, Tyr-Asn-Trp-Asn-Ser-Nal(2)-Gly-Leu-Arg-Phe-NH2] (H-YNWNS[2Nal]GLRF-NH2)
Second: CC(C)C[C@H](NC(=O)CNC(=O)[C@H](Cc1ccccc1)NC(=O)[C@H](CO)NC(=O)[C@H](CC(N)=O)NC(=O)[C@H](Cc1c[nH]c2ccccc12)NC(=O)[C@H](CC(N)=O)NC(=O)[C@@H](N)Cc1ccc(O)cc1)C(=O)N[C@@H](CCCNC(=N)N)C(=O)N[C@@H](Cc1ccc2ccccc2n1)C(N)=O [Compound No. 201] (H-YNWNSFGLR[X1]-NH2)
The “Specific Activity (intracellular Ca ion level-increasing activity)” value of the first is higher: 5 for the first, 1 for the second.

Compared with “Methylthiocarbamoyl-Sar-D-Tyr-Asn-Trp-Asn-Ser-Phe-Gly-Leu-Arg(Me)-Phe-NH2 [Compound No. 397]”, `CNC(=N)NCCC[C@H](NC(=O)[C@H](CC(C)C)NC(=O)NNC(=O)[C@H](Cc1ccccc1)NC(=O)[C@@H](NC(=O)[C@H](CC(N)=O)NC(=O)[C@H](Cc1c[nH]c2ccccc12)NC(=O)[C@H](CC(N)=O)NC(=O)[C@H](N)Cc1ccc(O)cc1)[C@@H](C)O)C(=O)N[C@@H](Cc1ccccc1)C(N)=O` [Compound No. 297, D-Tyr-Asn-Trp-Asn-Thr-Phe-AzaGly-Leu-Arg(Me)-Phe-NH2] (H-[dY]NWNTF[azaGly]L[Arg(Me)]F-NH2; N-terminus assumed) is lower in “Specific Activity (intracellular Ca ion level-increasing activity)” value: 5 for the first, 1 for the second.

Compared with “2-Aminoethyl-Gly-D-Tyr-Asn-Trp-Asn-Ser-Phe-Gly-Leu-Arg(Me)-Phe-NH2 [Compound No. 375]”, `CNC(=N)NCCC[C@H](NC(=O)[C@H](CC(C)C)NC(=O)NNC(=O)[C@H](Cc1ccccc1)NC(=O)[C@H](CO)NC(=O)[C@H](CC(N)=O)NC(=O)[C@@H](NC(=O)[C@H](N)Cc1ccc(O)cc1)[C@@H](C)O)C(=O)N[C@@H](Cc1ccccc1)C(N)=O` [Compound No. 241, D-Tyr-Thr-Asn-Ser-Phe-AzaGly-Leu-Arg(Me)-Phe-NH2] (H-[dY]TNSF[azaGly]L[Arg(Me)]F-NH2) is lower in “Specific Activity (intracellular Ca ion level-increasing activity)” value: 2 for the first, 1 for the second.

First: CC(C)C[C@H](NC(=O)CNC(=O)[C@H](Cc1ccccc1)NC(=O)[C@H](CO)NC(=O)[C@H](CC(N)=O)NC(=O)[C@H](Cc1c[nH]c2ccccc12)NC(=O)OCC1c2ccccc2-c2ccccc21)C(=O)N[C@@H](CCCNC(=N)N)C(=O)N[C@@H](Cc1ccccc1)C(N)=O [Compound No. 54] (Fmoc-WNSFGLRF-NH2)
Second: CNC(=N)NCCC[C@H](NC(=O)[C@H](CC(C)C)NC(=O)CNC(=O)[C@H](Cc1ccccc1)NC(=O)[C@H](CO)NC(=O)[C@H](CC(N)=O)NC(=O)[C@H](Cc1c[nH]c2ccccc12)NC(=O)[C@H](CC(N)=O)NC(=O)[C@H](N)Cc1ccc(O)cc1)C(=O)N[C@@H](Cc1c[nH]c2ccccc12)C(N)=O [Compound No. 174] (H-[dY]NWNSFGL[Arg(Me)]W-NH2)
The “Specific Activity (intracellular Ca ion level-increasing activity)” value of the first is lower: 5 for the first, 10 for the second.

First: CNC(=N)NCCC[C@H](NC(=O)[C@H](CC(C)C)NC(=O)NNC(=O)[C@H](Cc1ccccc1)NC(=O)[C@H](CO)NC(=O)[C@H](CC(N)=O)NC(=O)[C@H](Cc1c[nH]c2ccccc12)NC(=O)[C@H](CC(N)=O)NC[C@@H](N)Cc1ccc(O)cc1)C(=O)N[C@@H](Cc1ccccc1)C(N)=O [Compound No. 299, TyrΨ(CH2NH)Asn-Trp-Asn-Ser-Phe-AzaGly-Leu-Arg(Me)-Phe-NH2] (H-[X10]WNSF[azaGly]L[Arg(Me)]F-NH2)
Second: CC(C)C[C@H](NCCNC(=O)[C@H](Cc1ccccc1)NC(=O)[C@H](CO)NC(=O)[C@H](CC(N)=O)NC(=O)[C@H](Cc1c[nH]c2ccccc12)NC(=O)[C@H](CC(N)=O)NC(=O)[C@@H](N)Cc1ccc(O)cc1)C(=O)N[C@@H](CCCNC(=N)N)C(=O)N[C@@H](Cc1ccccc1)C(N)=O [Compound No. 261, Tyr-Asn-Trp-Asn-Ser-Phe-GlyΨ(CH2NH)Leu-Arg-Phe-NH2] (H-YNWNSF-X4; N-terminus assumed)
The “Specific Activity (intracellular Ca ion level-increasing activity)” value of the first is higher: 5 for the first, 1 for the second.

“Tyr-Asn-Trp-Phe-Gly-Leu-Arg-Phe-NH2 (YNWFGLRF-NH2) [Compound No. 88]” and `CNC(=N)NCCC[C@H](NC(=O)[C@H](CC(C)C)NC(=O)NNC(=O)[C@H](Cc1ccccc1)NC(=O)[C@H](CO)NC(=O)[C@H](CC(N)=O)NC(=O)[C@H](CC1CCCCC1)NC(=O)[C@@H](CC(N)=O)NC(=O)[C@H](N)Cc1cccnc1)C(=O)N[C@@H](Cc1ccccc1)C(N)=O` [Compound No. 290, D-Pya(3)-D-Asn-Cha-Asn-Ser-Phe-AzaGly-Leu-Arg(Me)-Phe-NH2] (H-[d3Pal][dN][Cha]NSF[azaGly]L[Arg(Me)]F-NH2) are the same in “Specific Activity (intracellular Ca ion level-increasing activity)” value: 1 for the first, 1 for the second.

Compared with `CC(=O)NC(=N)NCCC[C@H](NC(=O)[C@H](CC(C)C)NC(=O)CNC(=O)[C@H](Cc1ccccc1)NC(=O)[C@H](CO)NC(=O)[C@H](CC(N)=O)NC(=O)[C@H](Cc1c[nH]c2ccccc12)NC(=O)[C@H](CC(N)=O)NC(=O)[C@H](N)Cc1ccc(O)cc1)C(=O)N[C@@H](Cc1ccccc1)C(N)=O` [Compound No. 194], `CNC(=N)NCCC[C@H](NC(=O)[C@H](CC(C)C)NC(=O)NNC(=O)[C@H](Cc1ccccc1)NC(=O)[C@H](CO)NC(=O)[C@H](CC(N)=O)NC(=O)[C@H](CC1CCCCC1)NC(=O)[C@@H](CC(N)=O)NC(=O)[C@H](N)Cc1ccncc1)C(=O)N[C@@H](Cc1ccccc1)C(N)=O` [Compound No. 306, D-Pya(4)-D-Asn-Cha-Asn-Ser-Phe-AzaGly-Leu-Arg(Me)-Phe-NH2] (H-[d4Pal][dN][Cha]NSF[azaGly]L[Arg(Me)]F-NH2) is higher in “Specific Activity (intracellular Ca ion level-increasing activity)” value: 1 for the first, 2 for the second.
